PubChem BioAssay (NCI)
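Five concentrations, 48 hours, 96-well plates. GI50 is the concentration that inhibits growth by half. TGI: concentration producing complete growth inhibition.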

What was measured:
Assay in all cases: NCI-60 cell line screen, 48 h
[1] = system: OVCAR-8 ovarian
[2] = system: MOLT-4 leukemia
[3] = system: UACC-257 melanoma
[4] = system: NCI/ADR-RES ovarian
[5] = system: U251 CNS
[6] = system: MDA-MB-435
[7] = system: NCI-H226 lung
[8] = system: ACHN renal
[9] = system: DU-145 prostate
[10] = system: HCC-2998 colon

Row | Structure (SMILES) | GI50 [1] [µM] | TGI [1] [µM] | GI50 [2] [µM] | TGI [2] [µM] | GI50 [3] [µM] | TGI [3] [µM] | GI50 [4] [µM] | TGI [4] [µM] | GI50 [5] [µM] | TGI [5] [µM] | GI50 [6] [µM] | TGI [6] [µM] | GI50 [7] [µM] | TGI [7] [µM] | GI50 [8] [µM] | TGI [8] [µM] | GI50 [9] [µM] | TGI [9] [µM] | GI50 [10] [µM] | TGI [10] [µM]
1 | Cc1ccc(/C=C(\C#N)n2nnc3cc(F)c(F)cc32)cc1 | 2.26 | 6.93 | 2.7 | 36.5 | 1.63 | 3.54 | 2.53 | > 100 | 1.48 | 2.94 | 0.36 | 17.2 | 6.45 | 63.2 | 4.2 | 34.7 | 3.32 | 15.6 | 2.96 | 11.6
2 | CC(C)[C@]12O[C@H]1[C@@H]1O[C@]13[C@]1(O[C@H]1C[C@H]1c4c(C(=O)c5ccccc5)oc(OC(=O)c5ccccc5)c4CC[C@@]13C)[C@@H]2O | 0.0494 | > 50.2 | 0.0236 | > 31.6 | 0.0168 | 0.0628 | 0.0418 | 3.42 | 0.0863 | > 100 | 0.0151 | 0.0366 | 0.025 | 0.554 | 0.0174 | 20.7 | 0.0204 | 15.3 | 0.0378 | 0.355
3 | CO/N=C1/c2cc(OC)ccc2-c2c(NOC)nc3ccccc3c21 | 10.3 | 37 | 47 | > 100 | 28.2 | > 100 | 53 | > 100 | 13 | 25.7 | > 100 | > 100 | 35.1 | > 100 | 14.3 | 31.3 | 29.2 | > 100 | 35.6 | > 100
4 | COC(=O)c1c(-c2ccccc2)csc1NC(=O)c1c(-c2ccccc2)noc1C | 0.776 | > 100 | 1.22 | > 100 | > 82.9 | > 100 | 1.5 | > 100 | 0.321 | > 100 | 1.2 | > 100 | 1.56 | > 100 | 0.995 | > 100 | 1.98 | > 100 | > 21 | > 100
5 | Nc1nc(Cl)nc2c1ncn2C1O[C@H](CO)[C@@H](O)[C@@H]1F (some centres not stated) | 0.0423 | > 100 | 0.033 |  |  | > 100 | 0.0498 | > 100 | 0.442 | > 100 | 0.485 | > 100 | 0.329 | 37.5 | 0.33 |  | 0.332 | > 32.4 | 0.075 | > 100
6 | COc1ccc(/C=C(/C(=O)N2CCNCC2)c2cc(OC)c(OC)c(OC)c2)cc1O | 5.64 | > 100 | 3.94 | > 100 | 33.7 | > 100 | > 100 | > 100 | 3.29 | > 100 | 0.418 | 1.8 | 5.4 | > 100 | 49.5 | > 100 | 4.1 | > 100 | 3.76 | > 100
7 | CC(C)(C)c1ccc(-c2nnc(SCc3ccc(Cl)cc3)n2-c2cccc(C(F)(F)F)c2)cc1 |  | > 100 |  | > 67.1 |  | > 72.6 |  | > 100 |  | > 100 |  | > 100 |  | 97.3 |  | > 100 |  | > 100 |  | > 62.4
8 | O=C(CC1C(=O)Nc2ccccc2S1=O)Nc1cccc(Cl)c1 (configuration not stated) |  | > 71.9 |  | > 67.2 |  | > 100 |  | 49.8 |  | > 100 |  | > 100 |  | > 76.4 |  | > 100 |  | > 100 |  | > 100
9 | NC(=O)NC(=O)CI | 3.23 | 11.9 | 1.74 | 4.13 | 3.96 | 13.4 | 18.7 | 41.9 | 15.3 | 29.3 | 4.02 | 15.9 | 6.79 | 28.2 | 1.78 | 3.39 | 17.7 | 32.3 | 18.5 | 35.1
10 | COc1cc2c(/C=C3\C(=O)Nc4ccc(Br)cc43)c(Cl)n(C)c2cc1C | 5.12 | 20.3 | 5.63 | > 27.5 | 7.56 | 31 | 0.799 | 3.41 | 0.675 | 6.69 | 0.249 | 0.802 | 1.88 | 6.18 | 2.26 | 11.2 | 2.04 | 4.36 | 1.66 | 4.62
11 | O=Cc1ccc(C(F)(F)F)cc1.[C-]#[O+].[C-]#[O+].[C-]#[O+].[Cr] | 25.3 | > 100 | 15.4 | 68 | 58.2 | > 100 | 28.4 | > 100 | 26.8 | > 100 | 14.3 | 45.7 | 21.6 | 98.4 | 30.2 | > 100 | 20.9 | 94.9 | 53.6 | > 100
12 | Cc1nc2cc(O)c(O)cc2cc1Oc1ccc(NC(=O)Nc2ccc(Cl)c(Cl)c2)cc1 | 5.77 | > 32.5 | 8.87 | > 32.5 | 7.27 | 21.4 | 8.74 | > 32.5 | 6.58 | > 32.5 | 6.99 | > 32.5 | 11.8 | > 32.5 | 3.37 | 17.9 | 7.26 | 25.2 | 6.7 | 14.6
13 | COc1ccc(C2CC(c3cc(OC)c(OC)c(OC)c3)=NN2)cc1 (configuration not stated) | 28.4 | > 100 | 4.76 | 25 | 43.4 | > 100 | 6.67 | 94.8 | 4.52 | > 100 | 2.96 | 20.9 | 23.8 | > 100 | 26.2 | > 100 | 33.9 | > 100 | 9.35 | 37.2
